Reference: paper PMC12693416, “From Lipid Regulation to Neuroprotection: Multitarget (Benzo)thiazine Derivatives as Promising Leads” (Molecules, 2025)
Where two headings read alike, the source gives them in different places.

What was measured:
[1] = Radical scavenging of DPPH; conditions: DPPH 200 μM, 30 min incubation
Description: Compounds, dissolved in absolute methanol, at concentrations of 25–400 μM, were added to an equal volume of a methanolic solution of DPPH (final concentration 200 μM) at room temperature (22 ± 2 °C).

[2] = system: plasma of hyperlipidaemic mice; assay: Total antioxidant capacity (TAC) of plasma in hyperlipidaemic mice; type: in vivo; conditions: Mus musculus, ip, 24 h, i.p. 84 μmol/kg, read-out: Total Antioxidant Capacity (TAC) Increase (%)
[3] = molecular target: T1, acetylcholinesterase from eel (Electrophorus electricus, UniProt O42275); assay: Acetylcholinesterase (AChE) inhibition (Ellman); type: biochemical; conditions: for inhibition at 300 µM: read-out: AChE Inhibition (%), 300 μM compound
T1 construct: purchased Sigma
Description: (0.31 mM) in phosphate buffer with pH = 7. The incubation mixture is monitored for 7 min at 37 °C.

[4] = molecular target: soybean lipoxygenase (LOX-3); assay: Soybean lipoxygenase (LOX-3) inhibition; type: biochemical; conditions: after 5 min of incubation; sodium linoleate 100 μM, pH 9.0
Description: Lipoxygenase (LOX) inhibitory activity was determined using soybean lipoxygenase (250 U/mL) and sodium linoleate (100 μM) as substrate, in Tris–HCl buffer pH 9.0.

hyperlipidaemic mice = assay: Tyloxapol (Triton WR 1339)-induced hyperlipidemia, plasma lipid parameters; type: in vivo; conditions: i.p. 84 μmol/kg; for change in vivo at 84 µmol/kg / inhibition in vivo at 84 µmol/kg: Mus musculus, ip, 24 h
Description: An aqueous solution of Triton WR 1339 was given i.p. to mice (400 mg/kg of body weight) and one hour later the test compounds (84 μmol/kg of body weight), dissolved in saline or saline only, were administered i.p. After 24 h, blood was taken from the aorta/heart and used for the determination of plasma total cholesterol (TC), triglyceride (TG) levels, and high-density lipoprotein (HDL) levels, using commercially available kits (Biosis Cholesterol Enzymatic/PAP, Biosis Triglycerides GPO/PAP, and Biosis HDL Phosphovolframic, Biosis, Athens Greece). Levels of plasma lipids were determined in duplicate while values presented are the mean from 8 animals (per compound). The levels of low-density lipoprotein (LDL) are calculated according to the equation: LDL (mg/dL) = 3/4 * (TC-HDL).

[5] = system: mouse liver microsomal lipid peroxidation; assay: Inhibition of mouse liver microsomal lipid peroxidation (LP); conditions: read-out: LP IC50 Value; 45 min incubation
[6] = Iron chelation (ferrozine assay); conditions: for % of Fe(II) Chelation (at 100 μM): 100 μM compound, Fe2+ 20 μM
Description: […] The reaction was initiated with the addition of a 100 μM aqueous ferrozine solution, which chelates iron ions, resulting in an increased maximum absorbance at 562 nm. After incubation at 37 °C for 10 min, the mixture’s absorbance is measured at 562/700 nm. Each value is expressed as the mean of 3 tests per sample [46].

[7] = system: carrageenan-induced mouse paw edema; assay: Carrageenan-induced mouse paw edema; type: in vivo, C57BL/6 mice; conditions: ip, 3.5 h, i.p. 0.30 mmol/kg, female C57BL/6, 3.5 h after carrageenan, read-out: % Edema (decrease of carrageenan-induced paw edema vs control)
Description: For the in vivo anti-inflammatory activity, C57BL/6 mice were injected with 0.025 mL carrageenan (2% w/v solution in saline) i.d. into the right hind paw, the left paw serving as control. The test compounds dissolved in saline (300 μmol/kg) were given i.p. right after the carrageenan injection, and 3.5 h later the produced edema was estimated as paw weight increase. Results are expressed as percentage of reduction in paw-edema and are the mean of 6 animals (per compound).

[8] = plasma, vs tyloxapol control, read-out: % HDL Increase
[9] = ratio calculated, read-out: % HDL/LDL Increase (antiatherogenic index)
[10] = LDL calculated as 3/4*(TC-HDL), read-out: % LDL Decrease
[11] = plasma, vs tyloxapol control, read-out: % Total Cholesterol (TC) Reduction
[12] = plasma, vs tyloxapol control, read-out: % Triglycerides (TG) Reduction

T1 sequence (O42275 24-633): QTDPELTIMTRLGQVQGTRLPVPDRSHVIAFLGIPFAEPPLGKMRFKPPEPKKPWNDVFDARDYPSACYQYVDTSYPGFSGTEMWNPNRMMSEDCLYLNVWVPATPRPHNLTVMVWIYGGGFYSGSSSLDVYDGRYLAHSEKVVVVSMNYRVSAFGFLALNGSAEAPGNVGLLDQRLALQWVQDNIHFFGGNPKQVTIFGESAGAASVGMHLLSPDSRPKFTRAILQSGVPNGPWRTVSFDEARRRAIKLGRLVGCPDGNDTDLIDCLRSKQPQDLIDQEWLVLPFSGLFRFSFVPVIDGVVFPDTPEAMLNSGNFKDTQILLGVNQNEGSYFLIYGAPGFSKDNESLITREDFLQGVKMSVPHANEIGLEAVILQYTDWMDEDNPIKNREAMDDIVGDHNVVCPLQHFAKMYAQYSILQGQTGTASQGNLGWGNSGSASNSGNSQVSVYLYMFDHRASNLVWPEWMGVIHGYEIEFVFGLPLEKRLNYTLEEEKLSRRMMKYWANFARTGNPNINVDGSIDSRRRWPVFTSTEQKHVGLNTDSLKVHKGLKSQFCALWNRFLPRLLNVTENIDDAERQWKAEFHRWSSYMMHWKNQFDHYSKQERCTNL

SMILES	IC50 [1]	change in vivo at 84 µmol/kg [2]	inhibition at 300 µM [3]	IC50 [4]	change in vivo at 84 µmol/kg (hyperlipidaemic mice; [8])	change in vivo at 84 µmol/kg (hyperlipidaemic mice; [9])	inhibition in vivo at 84 µmol/kg (hyperlipidaemic mice; [10])	inhibition in vivo at 84 µmol/kg (hyperlipidaemic mice; [11])	inhibition in vivo at 84 µmol/kg (hyperlipidaemic mice; [12])	IC50 [5]	% of Fe(II) Chelation (at 100 μM) [6]	inhibition in vivo at 300 µmol/kg [7]	% Triglycerides (TG), value marked footnote 1: increase percentage (hyperlipidaemic mice; plasma, TG increase, not reduction)	AChE Inhibition (%) ([3]; 300 μM compound)	% of Fe(II) Chelation at 10 μM ([6]; 10 μM compound)
COc1ccc(/C=C/C(=O)N2CCSC(c3ccc(-c4ccccc4)cc3)C2)cc1OC (stereo not drawn) [Compound 2, (E)-1-(2-([1,1′-Biphenyl]-4-yl)thiomorpholino)-3-(3,4-dimethoxyphenyl)prop-2-en-1-one]	> 400 µM	43%	26%	> 300 µM	44%	122%	53%	30%	60%	> 1000 µM	18%	≤ 60%			
COc1cc(C(=O)N2CCSC(c3ccc(-c4ccccc4)cc3)C2)cc(OC)c1OC (stereo not drawn) [Compound 4]	> 400 µM	87%	30%	71 µM	95%		5%	10%	35%	> 500 µM	4%	44%			
CC(C)(C)c1cc(C(=O)N2CCSC(c3ccc(-c4ccccc4)cc3)C2)cc(C(C)(C)C)c1O (stereo not drawn) [Compound 5, (2-([1,1′-Biphenyl]-4-yl)thiomorpholino)(3,5-ditertbutyl-4-hydroxyphenyl)methanone]	300 µM	0%	24%	150 µM				55%	50%	250 µM	0%	35%			
CC(C)Cc1ccc(C(C)C(=O)N2CCSC(c3ccc(-c4ccccc4)cc3)C2)cc1 (stereo not drawn) [Compound 7, 1-(2-([1,1′-Biphenyl]-4-yl)thiomorpholino)-2-(4-isobutylphenyl)propan-1-one]	> 400 µM	0%	27%	22 µM				27%	70%	299 µM	3%	27%			
O=C(/C=C/c1ccccc1)N1CCSC(c2ccc(-c3ccccc3)cc2)C1 (stereo not drawn) [Compound 8, (E)-1-(2-([1,1′-Biphenyl]-4-yl)thiomorpholino)-3-phenylprop-2-en-1-one]	> 400 µM	104%	19%	> 200 µM	9%	91%	57%	45%	53%	> 1000 µM	5%	46%			
O=C(c1cccnc1)N1CCSC(c2ccc(-c3ccccc3)cc2)C1 (stereo not drawn) [Compound 9]	> 400 µM	60%	33%	192 µM		105%	44%	35%		> 1000 µM	2%	34%	33 *^,1%		
c1ccc(-c2ccc(C3CNc4ccccc4S3)cc2)cc1 (stereo not drawn) [Compound 11, 2-([1,1′-Biphenyl]-4-yl)-3,4-dihydro-2H-benzo[b][1,4]thiazine]	> 400 µM	> 200%		134 µM	101%		48%	23%	59%	30 µM	10%	40%		inactivity	
COc1ccc(/C=C/C(=O)N2CC(c3ccc(-c4ccccc4)cc3)Sc3ccccc32)cc1OC (stereo not drawn) [Compound 12, (E)-1-(2-([1,1′-Biphenyl]-4-yl)-2,3-dihydro-4H-benzo[b][1,4]thiazin-4-yl)-3-(3,4-dimethoxyphenyl)prop-2-en-1-one]	> 400 µM	203%	17%	74 µM	63%		59%	27%	29%	> 1000 µM	17%	43%			
O=C(c1cc(O)c(O)c(O)c1)N1CC(c2ccc(-c3ccccc3)cc2)Sc2ccccc21 (stereo not drawn) [Compound 13, (2-([1,1′-Biphenyl]-4-yl)-2,3-dihydro-4H-benzo[b][1,4]thiazin-4-yl)(3,4,5-trihydroxyphenyl)methanone]	36 µM	60%	~45%	37 µM	25%		62%	47%	53%	24 µM	91%	≤ 60%			12%
COc1cc(C(=O)N2CC(c3ccc(-c4ccccc4)cc3)Sc3ccccc32)cc(OC)c1OC (stereo not drawn) [Compound 14, (2-([1,1′-Biphenyl]-4-yl)-2,3-dihydro-4H-benzo[b][1,4]thiazin-4-yl)(3,4,5-trimethoxyphenyl)methanone]	> 400 µM	144%	~45%	71 µM	13%		73%	51%	50%	> 1000 µM	6%	38%			
CC(C)(C)c1cc(C(=O)N2CC(c3ccc(-c4ccccc4)cc3)Sc3ccccc32)cc(C(C)(C)C)c1O (stereo not drawn) [Compound 15, (2-([1,1′-Biphenyl]-4-yl)-2,3-dihydro-4H-benzo[b][1,4]thiazin-4-yl)(3,5-ditertbutyl-4-hydroxyphenyl)methanone]	> 400 µM	131%	23%	83 µM	79%		74%	55%	35%	> 500 µM	8%	31%			
CC(C)(C)c1cc(/C=C/C(=O)N2CC(c3ccc(-c4ccccc4)cc3)Sc3ccccc32)cc(C(C)(C)C)c1O (stereo not drawn) [Compound 16, (E)-1-(2-([1,1′-Biphenyl]-4-yl)-2,3-dihydro-4H-benzo[b][1,4]thiazin-4-yl)-3-(3,5-ditertbutyl-4-hydroxyphenyl)prop-2-en-1-one]	141 µM		24%	58 µM	131%		66%	45%	67%	> 1000 µM	9%	45%			
CC(C)Cc1ccc(C(C)C(=O)N2CC(c3ccc(-c4ccccc4)cc3)Sc3ccccc32)cc1 (stereo not drawn) [Compound 17, 1-(2-([1,1′-Biphenyl]-4-yl)-2,3-dihydro-4H-benzo[b][1,4]thiazin-4-yl)-2-(4-isobutylphenyl)propan-1-one]	> 400 µM	139%	13%	104 µM	43%		68%	45%	58%	> 1000 µM	29%	39%			
